The values below come from publication PMC4212090, “The comprehensive analysis of DEG/ENaC subunits in Hydra reveals a large variety of peptide-gated channels, potentially involved in neuromuscular transmission” (BMC Biology, 2014).

Read-outs that look alike come from different tables or passages of the source.

Assay [1] has as its target T1, HyNaC2/3/5 (Hydra vulgaris (Hydra magnipapillata), UniProt A8DZR6+A8DZR7+D3UD58). Kind of assay: Activation of HyNaC2/3/5 expressed in Xenopus oocytes by Hydra-RFamides (TEVC). The format is cell-based. As to conditions: EGTA-injected oocytes. The procedure:
(§1) To study the biophysical properties of the new HyNaCs, cRNA of HyNaCs was synthesized in vitro (mMessage mMachine kit, Ambion, Austin, Texas, USA) and injected into Xenopus laevis oocytes of stage V and VI. After injection, oocytes were incubated for one to two days at 19°C in oocyte Ringer’s solution 2 (OR-2), which contained (in mM): 82.5 NaCl, 2.5 KCl, 1.0 Na2HPO4, 1.0 MgCl2, 1.0 CaCl2, 5.0 HEPES, 0.5 g/l PVP, 1,000 U/l penicillin and 10 mg/l streptomycin, NaOH was used to adjust pH to 7.3. Whole cell currents were recorded from defolliculated oocytes by two-electrode voltage-clamp (TEVC) using the amplifier TurboTec 03X (npi electronic GmbH, Tamm, Germany). Standard bath solution (in mM: 140 NaCl, 10 HEPES, 1.8 CaCl2 and 1.0 MgCl2. NaOH was used to adjust pH to 7.4.) was exchanged by a pump driven system combined with the oocyte testing carousel (OTC), which was controlled by the interface OTC-20 [53]. To control the OTC-20 and to record the data to the hard drive, the software CellWorks (version 5.1.1; npi electronic GmbH, Tamm, Germany) was used. Data were sampled at 0.1 to 1 kHz and filtered at 20 Hz. HyNaCs are permeable for Ca^2+, activating an endogenous CaCC [40]. Therefore, unless otherwise indicated, oocytes were injected with 50 nl of 20 mM EGTA 30 to 180 minutes before measurements. Reversal potentials and Ca^2+ permeabilities of HyNaCs were studied as described previously.
(§2) EC50 values for Hydra-RFamides I and II as well as IC50 values for diminazene were determined by fits to the Hill equation using IGOR Pro (version 6.06, WaveMetrics, Inc.). Reversal potentials were defined as the first recorded data point, where currents reversed signs from negative to positive. For I/V relationships, voltage ramps in the absence of the agonist were used to subtract background conductances. Results are reported as mean ± standard error.

Another assay deals with HyNaC2/11/5 (Hydra vulgaris (Hydra magnipapillata), UniProt A0A0A0MP55+A8DZR6+D3UD58). Kind of assay: Activation of HyNaC2/11/5 expressed in Xenopus oocytes by Hydra-RFamides (TEVC). The format is cell-based. The procedure:
as §1, §2

The target in the next assay is HyNaC2/3/6 (Hydra vulgaris (Hydra magnipapillata), UniProt A0A0A0MP54+A8DZR6+A8DZR7). Nature of the assay: Activation of HyNaC2/3/6 expressed in Xenopus oocytes by Hydra-RFamides (TEVC). To be noted: EGTA-injected oocytes. Type of assay: cell-based. The procedure:
as §1, §2

The next assay addresses HyNaC2/4/6 (Hydra vulgaris (Hydra magnipapillata), UniProt A0A0A0MP54+A8DZR6+A8DZR8). Kind of assay: Activation of HyNaC2/4/6 expressed in Xenopus oocytes by Hydra-RFamides (TEVC). Type of assay: cell-based. As to conditions: EGTA-injected oocytes. The procedure:
as §1, §2

For a further assay, the target named is HyNaC2/3/7 (Hydra vulgaris (Hydra magnipapillata), UniProt A0A0A0MP73+A8DZR6+A8DZR7). Nature of the assay: Activation of HyNaC2/3/7 expressed in Xenopus oocytes by Hydra-RFamides (TEVC). Type of assay: cell-based. As to conditions: EGTA-injected oocytes. The procedure: as §1, §2
A further assay has as its target HyNaC2/9/7 (Hydra vulgaris (Hydra magnipapillata), UniProt A0A0A0MP48+A0A0A0MP73+A8DZR6). Kind of assay: Activation of HyNaC2/9/7 expressed in Xenopus oocytes by Hydra-RFamides (TEVC). Type of assay: cell-based. To be noted: EGTA-injected oocytes. The procedure: as §1, §2
The target in a further assay is HyNaC2/10/7 (Hydra vulgaris (Hydra magnipapillata), UniProt A0A0A0MP61+A0A0A0MP73+A8DZR6). Nature of the assay: Activation of HyNaC2/10/7 expressed in Xenopus oocytes by Hydra-RFamides (TEVC). The format is cell-based. As to conditions: EGTA-injected oocytes. The procedure: as §1, §2
Assay [2] relates to functional HyNaC heterotrimer. Kind of assay: Screen of functional HyNaC heterotrimers in Xenopus oocytes for activation by Hydra-RFamides. Type of assay: cell-based, Hydra magnipapillata. As to conditions: for activation of functional HyNaC heterotrimers (current elicited): 5 μM peptide, Xenopus oocytes. The procedure:
We tested the function of the new HyNaCs by co-expression of different HyNaC subunit combinations in Xenopus oocytes. We screened for functional subunit combinations by application of 5 μM Hydra-RFamide I, a potent agonist of HyNaC2/3/5 [4]. When we expressed an individual HyNaC subunit we could never elicit currents. […] When HyNaC2 was part of the injected cRNA pool, however, Hydra-RFamide I elicited currents. Simultaneous expression of HyNaC2 with a single other HyNaC resulted only in a functional channel when we co-expressed HyNaC2 and HyNaC3; it was already known that HyNaC2 and HyNaC3 form a low-affinity peptide-gated channel.
Dashed line represents the zero current level. Amino acid sequences of Hydra-RFamides I to V are shown at the bottom. HyNaC, Hydra Na^+ channel.
Since Hydra-RFamide II had been shown previously to activate HyNaC2/3/5 [4], we tested Hydra-RFamides II to V for channel activation.
as §1

A further assay has as its system HyNaC2/9/5. Kind of assay: Activation of HyNaC2/9/5 in Xenopus oocytes by Hydra-RFamides. The format is cell-based, Hydra magnipapillata. As to conditions: channel opened by lowering extracellular Ca2+. As to the method:
The contribution of the distantly related HyNaC12 to peptide-gated channels was assessed by co-expression with HyNaC2 and one or several other HyNaCs (HyNaC3 to HyNaC11). In addition, HyNaC12 was co-expressed with pools of different HyNaCs without HyNaC2. […] In fact, all HyNaCs that were activated by Hydra-RFamide I were opened by lowering the extracellular Ca^2+ concentration ([Ca^2+]e) to 10 nM (Figure 4). […] Some DEG/ENaCs are constitutively opened by an amino acid substitution at the so-called DEG-position. To further investigate whether HyNaC12 forms a functional homomeric channel, we substituted a glycine at the DEG-position by threonine (G436T), which has a large side chain. This substitution did, however, not constitutively open HyNaC12 (data not shown). This applies also for the co-expression of HyNaC12-G436T together with pools of different wild-type HyNaC subunits, leaving the function of HyNaC12 unknown.
To study the biophysical properties of the new HyNaCs, cRNA of HyNaCs was synthesized in vitro (mMessage mMachine kit, Ambion, Austin, Texas, USA) and injected into Xenopus laevis oocytes of stage V and VI. […] Whole cell currents were recorded from defolliculated oocytes by two-electrode voltage-clamp (TEVC) using the amplifier TurboTec 03X (npi electronic GmbH, Tamm, Germany). […]

Assay [3] concerns the target T1, HyNaC2/3/5. The arrangement: method as in PMID 20159980. As to conditions: ref [4], cited from earlier work.

HyNaC2/11/5, sequence (A0A0A0MP55 entry or part of it): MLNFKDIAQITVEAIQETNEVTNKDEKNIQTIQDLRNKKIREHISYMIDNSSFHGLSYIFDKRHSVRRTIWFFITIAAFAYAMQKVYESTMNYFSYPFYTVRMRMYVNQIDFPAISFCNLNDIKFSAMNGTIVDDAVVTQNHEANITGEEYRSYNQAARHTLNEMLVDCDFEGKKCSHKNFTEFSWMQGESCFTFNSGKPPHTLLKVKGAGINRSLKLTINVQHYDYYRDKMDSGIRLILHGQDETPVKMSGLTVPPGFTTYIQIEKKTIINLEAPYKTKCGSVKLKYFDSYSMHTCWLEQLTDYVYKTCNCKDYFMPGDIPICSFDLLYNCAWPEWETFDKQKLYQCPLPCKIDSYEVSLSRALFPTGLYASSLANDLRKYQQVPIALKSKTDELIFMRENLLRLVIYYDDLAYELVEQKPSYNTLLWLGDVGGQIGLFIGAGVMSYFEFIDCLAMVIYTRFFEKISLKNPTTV
HyNaC2/11/5, sequence (A8DZR6 entry or part of it): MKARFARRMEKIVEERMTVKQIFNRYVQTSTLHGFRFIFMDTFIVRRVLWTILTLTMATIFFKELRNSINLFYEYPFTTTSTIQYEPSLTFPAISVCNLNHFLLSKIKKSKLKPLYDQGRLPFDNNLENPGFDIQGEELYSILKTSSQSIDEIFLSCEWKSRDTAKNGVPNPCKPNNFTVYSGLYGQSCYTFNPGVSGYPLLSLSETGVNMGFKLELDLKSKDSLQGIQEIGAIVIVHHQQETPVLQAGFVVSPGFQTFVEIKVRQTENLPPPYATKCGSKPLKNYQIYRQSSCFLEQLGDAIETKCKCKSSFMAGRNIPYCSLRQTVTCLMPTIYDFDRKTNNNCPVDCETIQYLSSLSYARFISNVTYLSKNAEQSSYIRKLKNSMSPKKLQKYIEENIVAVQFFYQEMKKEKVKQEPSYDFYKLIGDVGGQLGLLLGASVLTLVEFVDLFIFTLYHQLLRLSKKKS
HyNaC2/11/5, sequence (D3UD58 entry or part of it): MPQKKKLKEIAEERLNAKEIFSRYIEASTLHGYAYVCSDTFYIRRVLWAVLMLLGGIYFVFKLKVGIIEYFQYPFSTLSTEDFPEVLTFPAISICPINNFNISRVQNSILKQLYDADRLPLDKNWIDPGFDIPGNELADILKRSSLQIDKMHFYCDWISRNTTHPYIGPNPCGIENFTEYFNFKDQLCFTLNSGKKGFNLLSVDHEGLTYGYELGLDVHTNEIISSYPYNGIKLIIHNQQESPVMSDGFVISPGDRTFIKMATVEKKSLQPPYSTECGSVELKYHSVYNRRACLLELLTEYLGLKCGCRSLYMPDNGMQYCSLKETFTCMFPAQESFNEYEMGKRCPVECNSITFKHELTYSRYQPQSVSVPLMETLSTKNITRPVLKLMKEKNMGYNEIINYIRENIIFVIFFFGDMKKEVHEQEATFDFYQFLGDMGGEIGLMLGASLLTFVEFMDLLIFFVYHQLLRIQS
T1 sequence (A8DZR6 entry or part of it): as the sequence (A8DZR6 entry or part of it) above
T1 sequence (D3UD58 entry or part of it): as the sequence (D3UD58 entry or part of it) above
T1 sequence (A8DZR7 entry or part of it): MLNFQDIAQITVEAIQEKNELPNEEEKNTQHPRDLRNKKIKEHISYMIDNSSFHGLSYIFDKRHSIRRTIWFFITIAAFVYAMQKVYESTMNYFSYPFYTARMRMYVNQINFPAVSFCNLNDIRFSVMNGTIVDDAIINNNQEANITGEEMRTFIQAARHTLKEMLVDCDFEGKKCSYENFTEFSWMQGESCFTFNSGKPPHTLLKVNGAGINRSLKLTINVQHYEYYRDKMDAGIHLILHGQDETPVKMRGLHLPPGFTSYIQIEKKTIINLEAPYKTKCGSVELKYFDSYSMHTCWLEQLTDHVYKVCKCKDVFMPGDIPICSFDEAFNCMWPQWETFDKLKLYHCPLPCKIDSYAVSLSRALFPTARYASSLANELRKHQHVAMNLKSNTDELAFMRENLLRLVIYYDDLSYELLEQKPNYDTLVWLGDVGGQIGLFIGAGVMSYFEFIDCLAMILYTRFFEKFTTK
HyNaC2/9/7, sequence (A0A0A0MP48 entry or part of it): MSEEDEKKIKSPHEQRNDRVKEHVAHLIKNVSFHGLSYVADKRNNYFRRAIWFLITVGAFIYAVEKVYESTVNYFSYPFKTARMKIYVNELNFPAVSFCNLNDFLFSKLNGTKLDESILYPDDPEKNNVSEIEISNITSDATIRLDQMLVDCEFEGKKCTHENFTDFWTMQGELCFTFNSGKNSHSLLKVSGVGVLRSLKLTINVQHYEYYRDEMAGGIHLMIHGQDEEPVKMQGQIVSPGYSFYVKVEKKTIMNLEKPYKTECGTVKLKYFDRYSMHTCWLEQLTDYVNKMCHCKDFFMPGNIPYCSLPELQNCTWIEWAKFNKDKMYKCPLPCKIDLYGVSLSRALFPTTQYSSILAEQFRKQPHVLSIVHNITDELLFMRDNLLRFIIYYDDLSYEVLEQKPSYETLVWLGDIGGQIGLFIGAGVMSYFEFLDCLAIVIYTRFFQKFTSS
HyNaC2/9/7, sequence (A8DZR6 entry or part of it): as the sequence (A8DZR6 entry or part of it) above
HyNaC2/9/7, sequence (A0A0A0MP73 entry or part of it): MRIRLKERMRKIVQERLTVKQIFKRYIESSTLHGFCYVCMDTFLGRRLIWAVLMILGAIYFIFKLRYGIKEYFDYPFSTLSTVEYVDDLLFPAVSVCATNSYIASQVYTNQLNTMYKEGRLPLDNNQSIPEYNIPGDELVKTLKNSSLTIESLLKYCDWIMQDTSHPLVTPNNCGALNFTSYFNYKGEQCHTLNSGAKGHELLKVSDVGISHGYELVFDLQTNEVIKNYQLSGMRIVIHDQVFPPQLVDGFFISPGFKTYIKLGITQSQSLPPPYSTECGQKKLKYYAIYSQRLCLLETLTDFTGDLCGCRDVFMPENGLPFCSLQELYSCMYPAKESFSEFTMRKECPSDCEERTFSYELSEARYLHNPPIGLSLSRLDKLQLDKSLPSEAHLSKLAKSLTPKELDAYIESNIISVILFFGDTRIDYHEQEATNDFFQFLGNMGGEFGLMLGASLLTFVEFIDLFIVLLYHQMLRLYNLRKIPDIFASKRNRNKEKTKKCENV

What is called EC50 is the concentration at which the effect is half-maximal. Take Hydra-RFamide II: the “current amplitude at highest agonist concentration (Hydra-RFamide II)” value at HyNaC2/3/5 [1] was 5.3 ± 1.0 μA; at HyNaC2/11/5 (EGTA-injected oocytes), 2.2 ± 0.4 μA; at HyNaC2/3/6 it was 9.2 ± 1.7 μA; on HyNaC2/4/6 it was 4.7 ± 0.8 μA; on HyNaC2/3/7, 11.8 ± 4.0 μA; at HyNaC2/9/7, 3.6 ± 1.3 μA. At HyNaC2/10/7, the “current amplitude at highest agonist concentration (Hydra-RFamide II)” value is on record as 1.1 ± 0.4 μA. The 50% effective concentration (EC50) was 1610 ± 270 nM on HyNaC2/3/5 [1] (read-out: EC50 (apparent affinity) for Hydra-RFamide II); 950 ± 160 nM at HyNaC2/11/5 (EGTA-injected oocytes, read-out: EC50 for Hydra-RFamide II); 40 ± 10 nM at HyNaC2/9/7 (read-out: EC50 for Hydra-RFamide II); 340 ± 80 nM on HyNaC2/3/5 [3] (oocytes not injected with EGTA, read-out: EC50 (apparent affinity) for Hydra-RFamide II). Further, the “apparent affinity for Hydra-RFamide II relative to Hydra-RFamide I” value is listed as “about 15 fold” at HyNaC2/11/5 (0.95 μM compared with 13.8 μM) and “ten times higher” on HyNaC2/3/5 [3]. Besides, in assay [2] (data not shown), the “activation of channels that were activated by Hydra-RFamide I” value was “also activated”. Also, the “activation of HyNaC2/9/5” value in the assay with HyNaC2/9/5 is “not activated”.

In the case of Hydra-RFamide III, the “activation of functional HyNaC heterotrimers (current elicited)” value in [2] was “did not elicit a current”.

Consider Hydra-RFamide IV, for which, in assay [2], the “activation of functional HyNaC heterotrimers (current elicited)” value is “did not elicit a current”.
